# Experiments:
# [1] = biological target: T1, CDK4/cyclin D3 (Homo sapiens, UniProt P11802); assay: Human CDK4/cyclin D3 inhibitory activity (QS S Assist CDK4/Cyclin D3_FP Kit, IMAP fluorescence polarization); assay type: biochemical; settings: Human CDK4/cyclin D3 inhibitory activity; read-out: CDK4 Activity symbol
# T1 construct: purchased Carna Biosciences, Inc. QS S Assist CDK4/Cyclin D3_FP Kit
# Method in brief: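 IMAP fluorescence polarization kit: CDK4/cyclin D3 at 12.5-25 ng/well with kit ATP/substrate/metal mix in 20 mM HEPES pH 7.4, 0.01% Tween20, 2 mM DTT, 45 min at room temperature. FP read at 485/535 nm after 30 min binding; IC50 from dose-response fit of percent inhibition versus enzyme and no-enzyme controls.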
# [2] = biological target: T2, CDK2/cyclin A2 (Homo sapiens, UniProt P24941); assay: Human CDK2/cyclin A2 inhibitory activity (QS S Assist CDK2/Cyclin A2_FP Kit, IMAP fluorescence polarization); assay type: biochemical; settings: Human CDK2/cyclin A2 inhibitory activity; read-out: CDK2 Activity symbol
# T2 construct: purchased Carna Biosciences, Inc. QS S Assist CDK2/Cyclin A2_FP Kit
# Method in brief: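 Kinase activity read as fluorescence polarization (485/535 nm) after phosphorylated fluorescent substrate binds IMAP reagent (30 min, RT, dark). Enzyme (2.5 ng/well) reacted 60 min at RT with ATP/substrate/metal in HEPES pH 7.4 buffer with Tween 20 and DTT; no-enzyme wells define 0% activity; IC50 by curve fit.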
# T1 sequence (P11802 whole entry): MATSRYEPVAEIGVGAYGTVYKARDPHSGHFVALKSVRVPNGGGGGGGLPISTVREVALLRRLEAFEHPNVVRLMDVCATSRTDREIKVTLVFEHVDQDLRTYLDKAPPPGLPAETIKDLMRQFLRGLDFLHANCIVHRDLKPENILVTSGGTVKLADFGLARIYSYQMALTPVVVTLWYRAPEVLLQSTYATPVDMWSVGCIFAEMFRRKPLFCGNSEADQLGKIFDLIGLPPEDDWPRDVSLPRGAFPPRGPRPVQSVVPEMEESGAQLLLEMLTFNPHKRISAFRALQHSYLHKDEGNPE
# T1 sequence (P30281 whole entry partner): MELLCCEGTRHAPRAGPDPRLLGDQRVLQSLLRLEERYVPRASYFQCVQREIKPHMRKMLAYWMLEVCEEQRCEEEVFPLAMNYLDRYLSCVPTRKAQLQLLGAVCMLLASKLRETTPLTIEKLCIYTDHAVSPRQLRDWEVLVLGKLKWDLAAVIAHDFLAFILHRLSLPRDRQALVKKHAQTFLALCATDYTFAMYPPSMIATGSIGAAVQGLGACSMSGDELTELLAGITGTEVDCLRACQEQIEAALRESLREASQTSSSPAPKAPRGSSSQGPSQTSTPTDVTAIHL
Structure (SMILES),IC50 [1] [nM],IC50 [2] [nM]
C[C@@H](O)c1cc2cnc(Nc3ccc(N4CCNCC4)nn3)nc2c(NC2CCCC2C(=O)O)n1 (stereo partly shown) [Compound 309],≥ 100,≥ 100
CCO[C@H](C)c1cc2cnc(Nc3ccc(N4CCNCC4)nn3)nc2c(NC(C)C)n1 [Compound 310],< 10,≥ 100
CO[C@H](C)c1cc2cnc(Nc3ccc(C4CCNCC4)nn3)nc2c(NC(C)C)n1 [Compound 311],< 10,≥ 100
C[C@@H](O)c1cc2cnc(Nc3ccc(CN4CCNCC4)cn3)nc2c(NCC2CCOCC2)n1 [Compound 312],< 10,≥ 100
C[C@@H](O)c1cc2cnc(Nc3ccc(N4CCNCC4)nn3)nc2c(NCC2CCOCC2)n1 [Compound 313],< 10,≥ 100
C[C@@H](O)c1cc2cnc(Nc3ccc(CN4CCNCC4)cn3)nc2c(NC2CCS(=O)(=O)CC2)n1 [Compound 314],< 10,≥ 100
C[C@@H](O)c1cc2cnc(Nc3ccc(N4CCNCC4)nn3)nc2c(NC(C)(C)C(=O)O)n1 [Compound 315],≥ 100,≥ 100
C[C@@H](O)c1cc2cnc(Nc3ccc(N4CCNCC4)nn3)nc2c(NC2(C(=O)O)CCCC2)n1 [Compound 316],≥ 100,≥ 100
C[C@@H](O)c1cc2cnc(Nc3ccc(C4CCNCC4)nn3)nc2c(NC2CCOCC2)n1 [Compound 317],< 10,≥ 100
CC(C)Nc1nc([C@@H](C)O)cc2cnc(Nc3ccc(C4CCNCC4)nn3)nc12 [Compound 318],< 10,≥ 100
CC(C)Nc1nc([C@@H](C)O)cc2cnc(Nc3ccc(N4CCN(C=O)CC4=O)cn3)nc12 [Compound 319],< 10,≥ 100
CO[C@H](C)c1cc2cnc(Nc3ccc(CN4CCNCC4)cn3)nc2c(NCC2CCOC2)n1 (stereo partly shown) [Compound 320],< 10,≥ 100
CO[C@H](C)c1cc2cnc(Nc3ccc(N4CCNCC4)nn3)nc2c(NCC2CCOC2)n1 (stereo partly shown) [Compound 321],< 10,≥ 100
C[C@@H](O)c1cc2cnc(Nc3ccc(N4CCNCC4)nn3)nc2c(NC2CCS(=O)(=O)CC2)n1 [Compound 322],10 to 100,≥ 100
C[C@@H](O)c1cc2cnc(Nc3ccc(CN4CCNCC4)cn3)nc2c(NCC2CCOC2)n1 (stereo partly shown) [Compound 323],< 10,≥ 100
C[C@@H](O)c1cc2cnc(Nc3ccc(CN4CCNCC4)cn3)nc2c(NC2CCCC2C(=O)O)n1 (stereo partly shown) [Compound 324],≥ 100,≥ 100
C[C@@H](O)c1cc2cnc(Nc3ccc(CN4CCNCC4)cn3)nc2c(NC2(C(=O)O)CCCC2)n1 [Compound 325],10 to 100,≥ 100
C[C@@H](O)c1nc(NC2CCOCC2)c2nc(Nc3ccc(CN4CCNCC4)cn3)ncc2c1Cl [Compound 326],< 10,≥ 100
C[C@@H](O)c1cc2cnc(Nc3ccc(N4CCNCC4)nn3)nc2c(NC(C)(C)CC(=O)O)n1 [Compound 327],10 to 100,≥ 100
CC(=O)c1cc2cnc(Nc3ccc(N4CCNCC4)nn3)nc2c(NC(C)C)n1 [Compound 328],< 10,≥ 100
CC(=O)c1cc2cnc(Nc3ccc(CN4CCNCC4)cn3)nc2c(NC(C)C)n1 [Compound 329],< 10,≥ 100
CC(=O)c1cc2cnc(Nc3ccc(N4CCNCC4)nn3)nc2c(NC2CCOCC2)n1 [Compound 330],< 10,≥ 100
CO[C@H](C)c1cc2cnc(Nc3ccc(-c4cccnc4)cn3)nc2c(NC(C)C)n1 [Compound 331],≥ 100,≥ 100
CO[C@H](C)c1cc2cnc(Nc3ccc(C4CCCNC4)cn3)nc2c(NC(C)C)n1 (stereo partly shown) [Compound 332],< 10,≥ 100
COCC(C)(C)Nc1nc([C@@H](C)O)cc2cnc(Nc3ccc(C4CCCNC4)cn3)nc12 (stereo partly shown) [Compound 333],< 10,≥ 100

Structure (SMILES),IC50 [1] [nM],IC50 [2] [nM]
CO[C@H](C)c1cc2cnc(Nc3ccc(N4CCC(O)C4)nn3)nc2c(NC(C)C)n1 (stereo partly shown) [Compound 334],10 to 100,≥ 100
CO[C@H](C)c1cc2cnc(Nc3ccc(N4CCN(C(=O)CO)CC4)nn3)nc2c(NC(C)C)n1 [Compound 335],< 10,≥ 100
CO[C@H](C)c1cc2cnc(Nc3ccc(NC4CCNCC4)nn3)nc2c(NC(C)C)n1 [Compound 336],< 10,≥ 100
C[C@@H](O)c1nc(NC2CCOCC2)c2nc(Nc3ccc(N4CCNCC4)nn3)ncc2c1Cl [Compound 337],< 10,≥ 100
C[C@@H](O)c1cc2cnc(Nc3ccc(N4CCNCC4)nn3)nc2c(N[C@H]2CC[C@H](C(=O)O)CC2)n1 [Compound 338],< 10,≥ 100
CO[C@H](C)c1cc2cnc(Nc3ccc(N4CCNCC4)nn3)nc2c(N[C@H]2CC[C@H](C(=O)O)CC2)n1 [Compound 339],10 to 100,≥ 100
C[C@@H](O)c1cc2cnc(Nc3ccc(N4CCNCC4)nn3)nc2c(N[C@H]2CC[C@H](O)CC2)n1 [Compound 340],< 10,≥ 100
CO[C@H](C)c1cc2cnc(Nc3ccc(N4CCNCC4)nn3)nc2c(N[C@H]2CC[C@H](O)CC2)n1 [Compound 341],< 10,≥ 100
C[C@@H](O)c1cc2cnc(Nc3ccc(CN4CCNCC4)cn3)nc2c(N[C@H]2CC[C@H](C(=O)O)CC2)n1 [Compound 342],< 10,≥ 100
CO[C@H](C)c1cc2cnc(Nc3ccc(CN4CCNCC4)cn3)nc2c(N[C@H]2CC[C@H](C(=O)O)CC2)n1 [Compound 343],< 10,≥ 100
C[C@@H](O)c1cc2cnc(Nc3ccc(CN4CCNCC4)cn3)nc2c(N[C@H]2CC[C@H](O)CC2)n1 [Compound 344],< 10,≥ 100
CO[C@H](C)c1cc2cnc(Nc3ccc(CN4CCNCC4)cn3)nc2c(N[C@H]2CC[C@H](O)CC2)n1 [Compound 345],< 10,≥ 100
CC(O)c1cc2cnc(Nc3ccc(N4CCNCC4=O)cn3)nc2c(NC2CCCOC2)n1 (stereo not shown) [Compound 346],< 10,≥ 100
C[C@@H](O)c1cc2cnc(Nc3ccc(N4CCNCC4=O)cn3)nc2c(N[C@H]2CCCOC2)n1 [Compound 347],< 10,≥ 100
C[C@@H](O)c1cc2cnc(Nc3ccc(N4CCNCC4=O)cn3)nc2c(N[C@@H]2CCOC2)n1 [Compound 348],< 10,≥ 100
C[C@@H](O)c1cc2cnc(Nc3ccc(N4CCNCC4=O)cn3)nc2c(N[C@H]2CCOC2)n1 [Compound 349],10 to 100,≥ 100
C[C@@H](O)c1cc2cnc(Nc3ccc(N4CCNCC4=O)cn3)nc2c(NC2CCOCC2)n1 [Compound 350],< 10,≥ 100
C[C@@H](O)c1cc2cnc(Nc3ccc(N4CCN(C=O)CC4=O)cn3)nc2c(N[C@@H]2CCCOC2)n1 [Compound 351],< 10,≥ 100
C[C@@H](O)c1cc2cnc(Nc3ccc(N4CCN(C=O)CC4=O)cn3)nc2c(N[C@H]2CCCOC2)n1 [Compound 352],< 10,≥ 100
C[C@@H](O)c1cc2cnc(Nc3ccc(N4CCN(C=O)CC4=O)cn3)nc2c(N[C@@H]2CCOC2)n1 [Compound 353],< 10,≥ 100
C[C@@H](O)c1cc2cnc(Nc3ccc(N4CCN(C=O)CC4=O)cn3)nc2c(N[C@H]2CCOC2)n1 [Compound 354],10 to 100,≥ 100
C[C@@H](O)c1cc2cnc(Nc3ccc(N4CCN(C=O)CC4=O)cn3)nc2c(NC2CCOCC2)n1 [Compound 355],< 10,≥ 100
CO[C@H](C)c1cc2cnc(Nc3ccc(N4CCNCC4)nn3)nc2c(NCC2CCOCC2)n1 [Compound 358],< 10,≥ 100
CO[C@H](C)c1cc2cnc(Nc3ccc(CN4CCNCC4)cn3)nc2c(NCC2CCOCC2)n1 [Compound 360],< 10,≥ 100
FC(F)c1cc2cnc(Nc3ccc(CN4CCNCC4)cn3)nc2c(NC2CCOCC2)n1 [Compound 364],< 10,10 to 100
